From the supplement of paper PMC11061612

Columns and labels:
GB-1 (Glioblastoma) = assay: Bliss excess, mean over the matrix (fraction); higher = more synergy
Outline: (§1)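 Bliss excess equals the observed combination effect minus the expected value EA + EB − EA·EB, where EA and EB are the effects of each agent alone. Combination Emax is the second-highest inhibition within the matrix. Inhibition was scaled from CellTiter-Glo 2.0 luminescence, with 0 set by vehicle wells and 1 by blank wells, after 72 hours of two-drug dosing of cells plated in 1536-well plates.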

[1] = system: RKN (Other Solid Carcinomas); assay: as above
Outline: as §1

SF539 (Glioblastoma) = assay: as above
Outline: as §1

A2058 (Melanoma) = assay: combination Emax (second highest fraction inhibited in the dose matrix, 72 h); higher = more inhibition; extreme values may be limits of the assay
Outline: as §1

[2] = system: CAL-120 (Breast Carcinoma); assay: as above
Outline: as §1

[3] = system: CAL-62 (Thyroid Gland Carcinoma); assay: as above
Outline: as §1

[4] = system: COLO-680N (Esophageal Squamous Cell Carcinoma); assay: as above
Outline: as §1

[5] = system: KE-37 (T-Lymphoblastic Leukemia); assay: as above
Outline: as §1

[6] = system: MFE-280 (Endometrial Carcinoma); assay: as above
Outline: as §1

[7] = system: MKN45 (Gastric Carcinoma); assay: as above
Outline: as §1

[8] = system: NCI-H2342 (Lung Adenocarcinoma); assay: as above
Outline: as §1

[9] = system: NCI-H446 (Small Cell Lung Carcinoma); assay: as above
Outline: as §1

[10] = system: OVMIU (Ovarian Carcinoma); assay: as above
Outline: as §1

[11] = system: PANC-03-27 (Pancreatic Carcinoma); assay: as above
Outline: as §1

[12] = system: PC-3_[JPC-3] (Lung Adenocarcinoma); assay: as above
Outline: as §1

[13] = system: RCM-1 (Colorectal Carcinoma); assay: as above
Outline: as §1

[14] = system: RERF-GC-1B (Gastric Carcinoma); assay: as above
Outline: as §1

SF268 (Low Grade Glioma) = assay: as above
Outline: as §1

[15] = system: VAL (B-Cell Non-Hodgkin's Lymphoma); assay: as above
Outline: as §1

WM793B (Melanoma) = assay: as above
Outline: as §1

Structure (SMILES)	Bliss excess (GB-1 (Glioblastoma))	Bliss excess [1]	Bliss excess (SF539 (Glioblastoma))	combination Emax (A2058 (Melanoma))	combination Emax [2]	combination Emax [3]	combination Emax [4]	combination Emax [5]	combination Emax [6]	combination Emax [7]	combination Emax [8]	combination Emax [9]	combination Emax [10]	combination Emax [11]	combination Emax [12]	combination Emax [13]	combination Emax [14]	combination Emax (SF268 (Low Grade Glioma))	combination Emax [15]	combination Emax (WM793B (Melanoma))
CC1(C)CCC(CN2CCN(c3ccc(C(=O)NS(=O)(=O)c4ccc(NCC5CCOCC5)c([N+](=O)[O-])c4)c(Oc4cnc5[nH]ccc5c4)c3)CC2)=C(c2ccc(Cl)cc2)C1 [Venetoclax] + CN(C)CCCOc1ccc(-c2ccc3ncc4c(c3c2)n(C2CCOCC2)c(=O)n4C)cn1 [AZD0156] (first compound max 1 µM, 7x7, partner max 1 µM)	-0.0206	-0.0862	0.0126	0.226	0.167	0.465	0.173	0.196	0.423	0.688	0.203	0.304	0.345	0.684	0.25	0.45	0.242	0.298	1	0.244
Cc1c2c(nn1C)CSCc1cc(n(C)n1)CSc1cc(c3ccccc3c1)OCCCc1c(C(=O)O)n(C)c3c-2c(Cl)ccc13 [AZD5991] + C=CCn1c(=O)c2cnc(Nc3ccc(N4CCN(C)CC4)cc3)nc2n1-c1cccc(C(C)(C)O)n1 [AZD1775] (first compound max 1 µM, partner max 1 µM)	0.0148	-0.0446	-0.0239	0.892	0.405	0.766	0.287	0.995	0.469	0.826	0.306	0.941	0.635	0.926	0.466	0.536	1	0.577	0.887	0.582
CN(CCO)CC[C@H](CSc1ccccc1)Nc1ccc(S(=O)(=O)NC(=O)c2ccc(N3CCC([C@@H](O)c4ccccc4-c4ccc(Cl)cc4)CC3)cc2)cc1S(=O)(=O)C(F)(F)F [AZD4320] + CCN(CCO)CCCOc1ccc2c(Nc3cc(CC(=O)Nc4cccc(F)c4)[nH]n3)ncnc2c1 [AZD2811] (first compound max 1 µM, 7x7, partner max 1 µM)	-0.0189	-0.0481	0.0862	0.47	0.829	0.488	0.137	1	0.888	0.316	0.384	0.991	0.802	0.638	0.147	0.545	0.568	0.519	1	0.246
Cc1c2c(nn1C)CSCc1cc(n(C)n1)CSc1cc(c3ccccc3c1)OCCCc1c(C(=O)O)n(C)c3c-2c(Cl)ccc13 [AZD5991] + CN(C)CCCOc1ccc(-c2ccc3ncc4c(c3c2)n(C2CCOCC2)c(=O)n4C)cn1 [AZD0156] (first compound max 1 µM, 7x7, partner max 1 µM)	0.0075	0.0006	-0.0184	0.465	0.171	0.218	0.219	0.939	0.38	0.356	0.278	0.67	0.359	0.254	0.279	0.232	0.978	0.3	0.657	0.305
COc1cccc(OCCCN)c1-c1cc(Nc2cnc(C#N)cn2)n[nH]1 [Prexasertib] + C[C@@H]1COCCN1C2=NC(=NC(=C2)C3(CC3)[S@](=N)(=O)C)C4=C5C=CNC5=NC=C4 [AZD6738] (first compound max 1 µM, 7x7, partner max 10 µM)	-0.0337	-0.027	-0.0046	0.436	0.446	0.785	0.416	1	0.398	0.822	0.294	0.975	0.596	0.902	0.426	0.862	0.543	0.514	0.952	0.907
Cc1cc2ncnn2cc1Nc1ncc2c(n1)n(C1CCOCC1)c(=O)n2C [AZD7648] + C=CCn1c(=O)c2cnc(Nc3ccc(N4CCN(C)CC4)cc3)nc2n1-c1cccc(C(C)(C)O)n1 [AZD1775] (first compound max 10 µM, partner max 1 µM)	0.0089	0.0089	0.0049	0.24	0.498	0.69	0.353	1	0.355	0.804	0.255	0.839	0.635	0.878	0.483	0.596	0.788	0.344	0.864	0.584
NC1(C(=O)N[C@@H](CCO)c2ccc(Cl)cc2)CCN(c2ncnc3[nH]ccc23)CC1 [Capivasertib] + CCN(CCO)CCCOc1ccc2c(Nc3cc(CC(=O)Nc4cccc(F)c4)[nH]n3)ncnc2c1 [AZD2811] (first compound max 10 µM, 7x7, partner max 1 µM)	-0.0143	-0.0711	-0.0573	0.798	0.49	0.308	0.195	1	0.661	0.486	0.482	0.958	0.381	0.318	0.344	0.197	0.542	0.416	0.761	0.527
C[C@@H](c1ccc2nccn2c1)n1nnc2ncc(-c3cnn(C)c3)nc21 [Savolitinib] + Cc1c2c(nn1C)CSCc1cc(n(C)n1)CSc1cc(c3ccccc3c1)OCCCc1c(C(=O)O)n(C)c3c-2c(Cl)ccc13 [AZD5991] (first compound max 1 µM, 7x7, partner max 1 µM)	-0.0495	-0.0706	-0.0337	0.36	0.112	0.131	0.183	0.159	0.116	0.839	0.321	0.597	0.114	0.0558	0.284	0.114	0.788	0.167	0.564	0.168
CN(CCO)CC[C@H](CSc1ccccc1)Nc1ccc(S(=O)(=O)NC(=O)c2ccc(N3CCC([C@@H](O)c4ccccc4-c4ccc(Cl)cc4)CC3)cc2)cc1S(=O)(=O)C(F)(F)F [AZD4320] + Cc1cc2ncnn2cc1Nc1ncc2c(n1)n(C1CCOCC1)c(=O)n2C [AZD7648] (first compound max 1 µM, 7x7, partner max 10 µM)	-0.0225	-0.0467	0.0095	0.0867	0.748	0.26	0.0933	1	0.774	0.352	0.27	0.699	0.847	0.177	0.243	0.351	0.344	0.164	1	0.221
COc1nnc2ccc(N3CCC(c4ccc(OCCN5CCN(C)C(=O)[C@H]5C)cc4)CC3)nn12 [AZD5153] + Cn1cnc2c(F)c(Nc3ccc(Br)cc3Cl)c(C(=O)NOCCO)cc21 [Selumetinib] (first compound max 1 µM, 7x7, partner max 10 µM)	-0.035	-0.0073	-0.0255	0.842	0.479	0.844	0.378	0.654	0.361	0.744	0.347	0.91	0.737	0.398	0.525	0.817	0.753	0.518	0.738	0.786
CCN(CCO)CCCOc1ccc2c(Nc3cc(CC(=O)Nc4cccc(F)c4)[nH]n3)ncnc2c1 [AZD2811] + C=CCn1c(=O)c2cnc(Nc3ccc(N4CCN(C)CC4)cc3)nc2n1-c1cccc(C(C)(C)O)n1 [AZD1775] (first compound max 1 µM, partner max 1 µM)	0.0002	-0.0017	0.0972	0.15	0.368	0.787	0.178	1	0.521	0.631	0.262	0.87	0.463	0.899	0.413	0.461	0.816	0.245	0.844	0.497
NC1(C(=O)N[C@@H](CCO)c2ccc(Cl)cc2)CCN(c2ncnc3[nH]ccc23)CC1 [Capivasertib] + C[C@@H]1COCCN1C2=NC(=NC(=C2)C3(CC3)[S@](=N)(=O)C)C4=C5C=CNC5=NC=C4 [AZD6738] (first compound max 10 µM, 7x7, partner max 10 µM)	-0.054	-0.124	-0.0125	0.805	0.708	0.784	0.373	0.992	0.636	0.753	0.585	0.904	0.62	0.521	0.441	0.665	0.558	0.644	0.831	0.842
NC1(C(=O)N[C@@H](CCO)c2ccc(Cl)cc2)CCN(c2ncnc3[nH]ccc23)CC1 [Capivasertib] + CC(=O)c1c(C)c2cnc(Nc3ccc(N4CCNCC4)cn3)nc2n(C2CCCC2)c1=O [Palbociclib] (first compound max 10 µM, 7x7, partner max 10 µM)	-0.0497	-0.0803	-0.0486	0.638	0.561	0.422	0.197	0.76	0.555	0.628	0.327	0.719	0.383	0.283	0.398	0.383	0.458	0.452	0.626	0.548
